Here are results for 2 compounds from US12103936B2, “Crystal form of hepatitis B surface antigen inhibitor” (FUJIAN AKEYLINK BIOTECHNOLOGY CO., LTD., priority 2018, dated 2024).

Usually EC50 stands for the midpoint of the concentration-response curve.

Assay [1] relates to HBV-DNA. To be noted: woodchuck model, single drug; cited from earlier work.
Assay [2] deals with HBsAg. Briefly: In vivo efficacy study in AAV/HBV mice model, HBsAg content in serum. Also on record: species or system C57BL/6 mice. To be noted: PO. The text has this: C57BL/6 mice, 10% HP-β-CD as vehicle, TDF ([…]) as refer compound, the compound of formula (I), and recombinant virus rAAV8-1.3HBV.
The reagents of the present project mainly included QIAamp96 DNA kit and TaqMan® Universal PCR Master Mix, hepatitis B surface antigen test kit.
The instrument included centrifuge (Beckman Allegra X-15R), tissue grinder (QIAGEN-Tissue lyser II) and spectrophotometer (Thermo-NANODROP 1000).
• a) All mice were administrated orally on the day 28 after being injected with virus, the day of administration was designated as day 0. Before administration, serum was collected by submandibular blood sampling for all mice. The mice were administration once a day for four weeks. The detailed dosage regimen was shown in Table 3. • b) Serum was collected by submandibular blood sampling for all mice twice a week, with each sampling volume being approximately 100 μL. The detailed blood sampling time is shown in Table 3. • c) On the day 28, all mice were euthanized and the blood was collected from the heart for serum collection. • d) All serum samples were sent for analysis.
The anti-HBV activity of the test compound in AAV/HBV mice model was evaluated by determining the content of HBsAg in the serum of the mice.

Assay [3] relates to surface antigens. Particulars: woodchuck model, single drug; cited from earlier work.
In assay [4] the test system is HBV-DNA. The assay is described as follows: HBV in vitro test in HepG2.2.15 cells, HBV-DNA by quantitative PCR. Format: cell-based. To be noted: Hepatitis B virus, 192 h, culture medium collected on day 8, read-out: EC50 against HBV-DNA. How it is done:
(§1) 1. Cell Line: HepG2.2.15 Cells
(§2) • Pancreatin (Invitrogen-25300062) • DPBS (Corning-21031CVR) • DMSO (Sigma-D2650-100 mL) • High-throughput DNA purification kit (QIAamp 96 DNA Blood Kit, Qiagen-51162) • Quantitative quick start universal probe reagent (FastStart Universal Probe Master, Roche-04914058001) • Hepatitis B surface antigen quantitative test kit (Autobio, CL0310) 3. Consumables and Instruments: • 96-well cell culture plate (Cornin-3599) • CO2 incubator (HERA-CELL-240) • Optical sealing film (ABI-4311971) • Quantitative PCR 96-well plate (Applied Biosystems-4306737) • Fluorescence quantitative PCR instrument (Applied Biosystems-7500 real time PCR system) Experimental Methods: • 1. HepG2.2.15 cells (4×10^4 cells/well) were seeded to a 96-well plate and cultured overnight at 37° C., 5% CO2. • 2. On the day 2, the compound was diluted to a total of 8 concentrations, with a 3-fold gradient dilution. Different concentrations of compounds were added into the culture wells in duplicate wells. The final concentration of DMSO in the culture medium was 0.5%. 10 μM ETV (Entecavir) was used as a 100% inhibition control; 0.5% DMSO was used as a 0% inhibition control. • 3. […]
(§3) 50 μL of sample and standard were added into a reaction plate respectively, followed by addition of 50 μL of enzyme conjugate into each well. […] Chemoluminescence intensity was determined by an ELISA finally. • 9.

Assay [5] deals with HBsAg. Briefly: HBV in vitro test in HepG2.2.15 cells, hepatitis B surface antigen by ELISA. The assay is classed as cell-based. To be noted: Hepatitis B virus, HepG2.2.15, 192 h, read-out: EC50 against HBsAg. How it is done: as §1, §2, §3
(ELISA stands for enzyme-linked immunosorbent assay.)

Setting [6] is: 10 mg/kg, detection date day 11.
[7] abbreviates: 10 mg/kg, detection date day 14.
Where [8] appears, read: 10 mg/kg, detection date day 18.
Setting [9] is: 10 mg/kg, detection date day 21.
The mark [10] stands for this setting: 10 mg/kg, detection date day 25.
Where [11] appears, read: 10 mg/kg, detection date day 28.
Where [12] appears, read: 10 mg/kg, detection date day -1.

Regarding `COCCCOc1cc2c(cc1OC)-c1cc(=O)c(C(=O)O)cn1[C@H](C(C)C)C2` [RG7834, reference compound], the “reduction of HBV-DNA” value in assay [1] was 1.7 Log. In addition, the “HBsAg content in mice” value in assay [2] (10 mg/kg, detection date day 4) was determined as 3.54 IU/mL; in assay [2] (10 mg/kg, detection date day 7), 3.58 IU/mL; in assay [2] (setting [6]), 3.70 IU/mL; in assay [2] (setting [7]), 3.49 IU/mL; in assay [2] (setting [8]) it was 3.70 IU/mL; in assay [2] (setting [9]) it was 3.52 IU/mL. For the same compound, the “HBsAg content in mice” value in assay [2] (setting [10]) came out at 3.50 IU/mL; in assay [2] (setting [11]) it was 3.66 IU/mL; in assay [2] (setting [12]), 4.56 IU/mL. Besides, in assay [3], the “reduction of surface antigens” value is reported as 2.57 Log.

In the case of `COCCCOc1cc2c(cc1OC)-c1cc(=O)c(C(=O)O)cn1[C@H](C(C)(C)C)CO2` [the compound of formula (I)], the 50% effective concentration (EC50) in assay [4] was found to be 2.55 nM; in assay [5] it was 3.88 nM. Further, the “HBsAg content in mice” value in assay [2] (3 mg/kg, detection date day 4) is recorded as 3.68 IU/mL; in assay [2] (3 mg/kg, detection date day 7) it was 3.70 IU/mL; in assay [2] (3 mg/kg, detection date day 11), 3.76 IU/mL; in assay [2] (3 mg/kg, detection date day 14), 3.70 IU/mL; in assay [2] (3 mg/kg, detection date day 18) it was 3.85 IU/mL; in assay [2] (3 mg/kg, detection date day 21), 3.78 IU/mL. Besides, the “HBsAg content in mice” value in assay [2] (3 mg/kg, detection date day 25) was 3.76 IU/mL; in assay [2] (3 mg/kg, detection date day 28) it was 3.96 IU/mL; in assay [2] (3 mg/kg, detection date day -1), 4.54 IU/mL; in assay [2] (10 mg/kg, detection date day 4), 3.56 IU/mL; in assay [2] (10 mg/kg, detection date day 7), 3.69 IU/mL; in assay [2] (setting [6]), 3.92 IU/mL. The “HBsAg content in mice” value in assay [2] (setting [7]) came to 3.61 IU/mL; in assay [2] (setting [8]), 3.90 IU/mL; in assay [2] (setting [9]), 3.75 IU/mL; in assay [2] (setting [10]), 3.83 IU/mL; in assay [2] (setting [11]), 3.87 IU/mL; in assay [2] (setting [12]) it was 4.51 IU/mL. Besides, the “HBsAg content in mice” value is recorded as 3.38 IU/mL in assay [2] (30 mg/kg, detection date day 4); 3.44 IU/mL in assay [2] (30 mg/kg, detection date day 7); 3.64 IU/mL in assay [2] (30 mg/kg, detection date day 11); 3.40 IU/mL in assay [2] (30 mg/kg, detection date day 14); 3.55 IU/mL in assay [2] (30 mg/kg, detection date day 18); 3.46 IU/mL in assay [2] (30 mg/kg, detection date day 21). Further, the “HBsAg content in mice” value amounted to 3.37 IU/mL in assay [2] (30 mg/kg, detection date day 25); 3.53 IU/mL in assay [2] (30 mg/kg, detection date day 28); 4.48 IU/mL in assay [2] (30 mg/kg, detection date day -1).
